Tests used:
[1] = attributed to oxidation of dithiolane ring and NMe2; cited from earlier work
[2] = system: castration and radioresistant prostate xenograft tumor; details: in vivo; cited from earlier work
AR Tyr267 = details: cited from earlier work
AKT Tyr176 = details: pancreatic cancer cells; cited from earlier work
ACK1 [3] = target: T1, ACK1 (Homo sapiens, UniProt Q07912); assay: ACK1 IC50 (Table 1, assay not specified); type: biochemical
T1 construct: purchased Reaction Biology

MDA-MB-231 = assay: Cell viability (MDA-MB-231); type: cell-based; details: Homo sapiens
UKE1 = assay: Cell viability (UKE1); type: cell-based
ACK1 [4] = target: T1, ACK1; assay: Reaction Biology 33P Hotspot assay; type: biochemical

T1 sequence (Q07912 whole entry): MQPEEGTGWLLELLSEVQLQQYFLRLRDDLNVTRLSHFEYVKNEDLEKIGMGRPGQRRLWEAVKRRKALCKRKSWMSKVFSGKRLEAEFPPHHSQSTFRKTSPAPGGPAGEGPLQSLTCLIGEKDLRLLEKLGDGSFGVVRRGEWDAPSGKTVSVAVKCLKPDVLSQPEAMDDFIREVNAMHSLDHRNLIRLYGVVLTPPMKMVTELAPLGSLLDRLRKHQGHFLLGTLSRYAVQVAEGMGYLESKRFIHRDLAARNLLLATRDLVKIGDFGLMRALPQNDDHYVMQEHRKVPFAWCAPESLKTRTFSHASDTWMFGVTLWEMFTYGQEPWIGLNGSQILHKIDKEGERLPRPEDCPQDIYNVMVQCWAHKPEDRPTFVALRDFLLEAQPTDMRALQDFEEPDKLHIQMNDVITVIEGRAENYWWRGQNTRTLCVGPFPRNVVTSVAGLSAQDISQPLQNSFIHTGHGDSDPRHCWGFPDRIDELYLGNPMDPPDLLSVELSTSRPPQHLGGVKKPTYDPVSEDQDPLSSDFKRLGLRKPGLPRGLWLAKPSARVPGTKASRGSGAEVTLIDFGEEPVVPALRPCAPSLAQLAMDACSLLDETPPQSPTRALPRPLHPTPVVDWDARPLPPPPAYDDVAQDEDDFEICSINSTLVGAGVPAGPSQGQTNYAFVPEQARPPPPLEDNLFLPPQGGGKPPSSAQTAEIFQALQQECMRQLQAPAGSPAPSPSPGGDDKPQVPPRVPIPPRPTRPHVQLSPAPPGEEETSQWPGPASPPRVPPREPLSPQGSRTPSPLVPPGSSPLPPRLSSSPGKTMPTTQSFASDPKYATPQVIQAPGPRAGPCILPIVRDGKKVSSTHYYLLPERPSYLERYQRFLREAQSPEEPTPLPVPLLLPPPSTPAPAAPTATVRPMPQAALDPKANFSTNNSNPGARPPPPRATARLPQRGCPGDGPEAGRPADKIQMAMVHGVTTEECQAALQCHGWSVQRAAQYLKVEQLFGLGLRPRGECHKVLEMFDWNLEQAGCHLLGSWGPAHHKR

In the case of `CN(C)CCOc1ccc(-c2oc3ncnc(NCC4SCCS4)c3c2-c2ccccc2)cc1` [Compound 1c], the pharmacokinetic properties [1] is listed as “poor pharmacokinetic properties”.
In the case of `c1ccc(-c2oc3ncnc(NC[C@@H]4CCCO4)c3c2-c2ccccc2)cc1` [Compound 1b], the “castration and radioresistant prostate xenograft tumor growth” value [2] is given as “inhibits”, the “AR Tyr267 phosphorylation” value (AR Tyr267) is given as “inhibits” and the “ACK1 dependent AKT Tyr176 phosphorylation” value (AKT Tyr176) is given as “inhibits”.
With `O=C(COc1cccc2c1C(=O)N(C1CCC(=O)NC1=O)C2=O)NCCCCN1CCN(c2ccc(Nc3ncc(Cl)c(NC[C@H]4CCCO4)n3)cc2)CC1` (stereo partly drawn) [N-(4-(4-(4-((5-chloro-4-((((R)-tetrahydrofuran-2-yl)methyl)amino)pyrimidin-2-yl)amino)phenyl)piperazin-1-yl)butyl)-2-((2-(2,6-dioxopiperidin-3-yl)-1,3-dioxoisoindolin-4-yl)oxy)acetamide] the IC50 (ACK1 [3]) was 0.0564 µM.
`Cn1cc(-c2ccc(Nc3ncc(Cl)c(NCC4CCOCC4)n3)cc2)cn1` [5-chloro-N^2-(4-(1-methyl-1H-pyrazol-4-yl)phenyl)-N^4-((tetrahydro-2H-pyran-4-yl)methyl)pyrimidine-2,4-diamine] gave an EC50 (MDA-MB-231) of 7.72 µM, an EC50 (UKE1) of 6.7 µM and an IC50 (ACK1 [4]) of 29.1 nM.

Source: US12637432B2, “Inhibitors of ACK1/TNK2 tyrosine kinase” (H. LEE MOFFITT CANCER CENTER AND RESEARCH INSTITUTE, INC., priority 2020, dated 2026)
